# According to US20140079836A1, “METHODS AND COMPOSITIONS FOR ALTERING HEALTH, WELLBEING, AND LIFESPAN” (LifeSpan Extension, LLC, priority 2008, published 2014):
# System: telomerase
# Assay: Quantitative telomerase detection (telomeric repeat formation + PCR) in skin fibroblasts (donor four AG7308, donor one AG14271) with or without UVB
# Type: cell-based, human
# Protocol: Culture media: Cells were grown in Minimal Essential Medium supplemented with 10% fetal bovine serum, 2 mM L-glutamine, 2 mM Glutamax I, and 1× MEM non-essential amino acids solution. Cells were washed in the same medium, but without the fetal bovine serum. […] All cultures were incubated at 37° C. with 5% CO2 in a humidified chamber. Seeding of cells: […] Three wells were seeded per test condition or control. Experimental phase: On Day 3, wells were washed 1× with 2 mls medium, fed back 2 mls medium without fetal bovine serum and preincubated for 30-60 minutes before challenge with test or control conditions. […] The green tea polyphenols used were Premier Green Tea Extract Lot #10783, obtained from Pharma Cosmetix Research, LLC (Richmond, Va.). The Green Tea extract was measured into a stock solution of the above described Minimal Essential Media+1% Fetal Bovine Serum in a w/v ratio and then serially diluted into the testing concentrations with MEM+1% Fetal Bovine Serum. Three conditions were tested: […] UVB exposed and unexposed cells without test condition were used as controls. […] Cells from each test and control parameter were then trypsinized, collected by centrifugation, washed 3 times in PBS, and a cell count made using a hemacytometer. The final pellet was stored at −80° C. until processed further. UVB exposure: […] Cells were exposed from the bottom of the culture dish. The UVB dose delivered to the cells was adjusted for interference from the plastic in the culture dish. […] Extract from the cell pellets stored at −80 C post experimental phase was prepared for PCR according to the instructions in the Allied Biotech, Inc, Quantitative Telomerase Detection Kit. Briefly, pellets were thawed and immediately resuspended in 200 ul 1× Lysis Buffer per […]. The suspension was incubated on ice for 30 minutes, then microcentrifuged at 12,000×g for 30 minutes at 4° C. The supernatant was aliquoted and stored at −80° C. Detection of Telomerase: The extract from the cells allows for determination of telomerase activity by coupling the extract's ability to form telomeric repeats onto an oligonucleotide substrate and the resultant extended product are amplified using Polymerase Chain Reaction. These products are then visualized with SYBR green a fluorescent detection agent that emits green fluorescence when bound to the double stranded DNA product. […] The samples were run in a BioRad iCycler for 20 minutes at 25° C. to complete the telomerase reaction. The PCR initial activation step followed immediately and was of 10 minute duration at […]. […] The SYBR green detection occurred during the extension phase. Telomerase Detection Results: […] The raw analysis is provided in DATA TABLE 1. […] Culture media: Cells were grown in Minimal Essential Medium supplemented with 10% fetal bovine serum, 2 mM L-glutamine, 2 mM Glutamax I, and 1×MEM non-essential amino acids solution. Cells were washed in the same medium, but without the fetal bovine serum. […] All cultures were incubated at 37° C. with 5% CO2 in a humidified chamber. Seeding of cells: […] Three wells were seeded per test condition or control. Experimental phase: On Day 3, wells were washed 1× with 2 mls medium, fed back 2 mls medium without fetal bovine serum and preincubated for 30-60 minutes before challenge with test or control conditions. […] The 1% stock solution was also diluted with MEM+1% FBS until the testing concentrations were reached. Three conditions were tested: […] UVB exposed and unexposed cells without test condition were used as controls. […] Cells from each test and control parameter were then trypsinized, collected by centrifugation, washed 3 times in PBS, and a cell count made using a hemacytometer. The final pellet was stored at −80° C. until processed further. UVB exposure: […] Cells were exposed from the bottom of the culture dish. The UVB dose delivered to the cells was adjusted for interference from the plastic in the culture dish. […]
smiles,measurement,setting,value
"COC1=C(OC)C(=O)C(CCCCCCCCCCO)=C(C)C1=O [Idebenone, 6-(10-hydroxydecyl)-2,3-dimethoxy-5-methyl-1,4-benzoquin-one]",Level of telomerase,"donor four UVB + agent 4 hr, compared to UVB Tx Control",−1.07
same,Level of telomerase,"donor four UVB + agent 4 hr, compared to UnTx Control",90.51
same,Level of telomerase,"donor four UVB + agent Continuous, compared to UVB Tx Control",−1.00
same,Level of telomerase,"donor four UVB + agent Continuous, compared to UnTx Control",97.01
same,less telomerase activity than untreated cells,donor four cells given Idebenone,roughly 53%
same,telomerase activity,donor four cells given Idebenone and 1 MED UVB vs UVB stressed cells alone,−1.7 fold
same,telomerase activity,donor four cells given Idebenone and 1 MED UVB vs untreated cells,−2.4 fold
same,Level of telomerase,donor four idebenone Vs. person idebenone 4 hr,1.46
same,telomerase activity,donor one cells given Idebenone and 1 MED UVB vs UVB treated age matched controls,−2.65 fold
same,telomerase activity,donor one cells given Idebenone and 1 MED UVB vs untreated controls,roughly −2.61 fold
same,telomerase activity (summary in words),stressed (UVB) and unstressed cells,decreased level of telomerase activity
